How the values were obtained:
Assay type in all cases: biochemical
[1] = molecular target: T1, Bmx(h) (Homo sapiens, UniProt P51813); experiment: Upstate KinaseProfiler enzyme assay, Bmx; details: 500 nM compound; read-out: Percent inhibition at 500 nM Bmx(h)
T1 construct: purchased Upstate Biotechnology (Dundee, UK), KinaseProfiler service
T1 sequence (P51813 1-675): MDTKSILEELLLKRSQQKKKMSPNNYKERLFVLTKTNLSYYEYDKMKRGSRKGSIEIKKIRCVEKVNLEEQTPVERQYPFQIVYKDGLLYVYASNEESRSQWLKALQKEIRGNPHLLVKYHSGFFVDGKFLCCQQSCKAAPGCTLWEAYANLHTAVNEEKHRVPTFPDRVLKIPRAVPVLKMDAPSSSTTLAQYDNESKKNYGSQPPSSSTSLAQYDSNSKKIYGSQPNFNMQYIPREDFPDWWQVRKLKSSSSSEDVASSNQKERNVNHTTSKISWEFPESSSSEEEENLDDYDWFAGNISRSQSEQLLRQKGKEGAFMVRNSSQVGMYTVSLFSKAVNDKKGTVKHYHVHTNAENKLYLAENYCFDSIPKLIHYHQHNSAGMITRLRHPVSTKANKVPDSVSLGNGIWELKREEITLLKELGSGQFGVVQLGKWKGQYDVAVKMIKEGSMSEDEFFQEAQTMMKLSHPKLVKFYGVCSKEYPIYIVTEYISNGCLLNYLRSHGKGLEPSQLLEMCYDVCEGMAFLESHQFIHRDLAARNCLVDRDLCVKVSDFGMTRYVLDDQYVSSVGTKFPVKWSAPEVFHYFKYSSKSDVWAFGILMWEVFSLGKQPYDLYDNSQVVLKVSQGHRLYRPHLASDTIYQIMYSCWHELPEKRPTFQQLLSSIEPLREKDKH
In short: (§1)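 Substrates are dissolved and diluted to working stocks in de-ionised water. Enzymes go into the assay from 10× working dilutions prepared in pH 7.0 MOPS buffer (20 mM) containing BSA 1 mg/ml, glycerol 5%, Brij-35 0.01%, β-mercaptoethanol 0.1% and EDTA 1 mM.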

[2] = molecular target: T2, Blk(m) (Mus musculus, UniProt P16277); experiment: Upstate KinaseProfiler enzyme assay, Blk; details: 500 nM compound; read-out: Percent inhibition at 500 nM Blk(m)
T2 construct: purchased Upstate Biotechnology (Dundee, UK), KinaseProfiler service
In short: as §1

[3] = molecular target: T3, KDR(h) (Homo sapiens, UniProt P35968); experiment: Upstate KinaseProfiler enzyme assay, KDR; details: 500 nM compound; read-out: Percent inhibition at 500 nM KDR(h)
T3 construct: purchased Upstate Biotechnology (Dundee, UK), KinaseProfiler service
In short: as §1

[4] = molecular target: T4, BTK(h) (Homo sapiens, UniProt Q06187); experiment: Upstate KinaseProfiler enzyme assay, BTK; details: 500 nM compound; read-out: Percent inhibition at 500 nM BTK(h)
T4 construct: purchased Upstate Biotechnology (Dundee, UK), KinaseProfiler service
In short: as §1

T4 sequence (Q06187 whole entry): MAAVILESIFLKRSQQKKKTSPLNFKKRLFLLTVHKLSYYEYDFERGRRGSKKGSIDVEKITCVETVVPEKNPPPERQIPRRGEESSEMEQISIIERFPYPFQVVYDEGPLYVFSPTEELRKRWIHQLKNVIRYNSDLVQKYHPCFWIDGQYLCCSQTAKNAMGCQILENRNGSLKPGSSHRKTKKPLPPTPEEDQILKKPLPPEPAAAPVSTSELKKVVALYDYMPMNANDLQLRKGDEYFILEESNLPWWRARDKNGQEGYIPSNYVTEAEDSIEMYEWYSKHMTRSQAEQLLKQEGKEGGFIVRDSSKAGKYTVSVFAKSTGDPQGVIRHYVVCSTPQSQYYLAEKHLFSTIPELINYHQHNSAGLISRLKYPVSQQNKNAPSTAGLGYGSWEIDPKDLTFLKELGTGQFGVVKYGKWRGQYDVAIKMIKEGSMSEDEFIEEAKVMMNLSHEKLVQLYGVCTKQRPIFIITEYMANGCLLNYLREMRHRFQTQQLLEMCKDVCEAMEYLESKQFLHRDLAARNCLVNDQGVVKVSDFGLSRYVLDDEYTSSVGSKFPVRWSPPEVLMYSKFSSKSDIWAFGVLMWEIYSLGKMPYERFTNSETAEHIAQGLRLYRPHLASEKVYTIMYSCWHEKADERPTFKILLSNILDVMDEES
T2 sequence (P16277 whole entry): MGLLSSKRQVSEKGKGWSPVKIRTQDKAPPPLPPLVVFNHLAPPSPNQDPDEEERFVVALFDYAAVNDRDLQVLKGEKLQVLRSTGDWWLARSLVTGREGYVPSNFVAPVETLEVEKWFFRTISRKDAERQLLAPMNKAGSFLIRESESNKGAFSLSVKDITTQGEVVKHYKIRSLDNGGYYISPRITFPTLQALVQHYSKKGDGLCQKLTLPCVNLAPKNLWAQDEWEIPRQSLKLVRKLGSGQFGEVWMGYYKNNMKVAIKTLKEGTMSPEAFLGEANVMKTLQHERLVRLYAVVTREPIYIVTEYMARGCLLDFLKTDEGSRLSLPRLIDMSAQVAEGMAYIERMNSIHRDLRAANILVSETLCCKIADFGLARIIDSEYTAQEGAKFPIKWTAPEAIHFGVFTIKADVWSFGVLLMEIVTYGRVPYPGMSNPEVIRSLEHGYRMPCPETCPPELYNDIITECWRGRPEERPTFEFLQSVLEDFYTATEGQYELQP
T3 sequence (P35968 20-1356): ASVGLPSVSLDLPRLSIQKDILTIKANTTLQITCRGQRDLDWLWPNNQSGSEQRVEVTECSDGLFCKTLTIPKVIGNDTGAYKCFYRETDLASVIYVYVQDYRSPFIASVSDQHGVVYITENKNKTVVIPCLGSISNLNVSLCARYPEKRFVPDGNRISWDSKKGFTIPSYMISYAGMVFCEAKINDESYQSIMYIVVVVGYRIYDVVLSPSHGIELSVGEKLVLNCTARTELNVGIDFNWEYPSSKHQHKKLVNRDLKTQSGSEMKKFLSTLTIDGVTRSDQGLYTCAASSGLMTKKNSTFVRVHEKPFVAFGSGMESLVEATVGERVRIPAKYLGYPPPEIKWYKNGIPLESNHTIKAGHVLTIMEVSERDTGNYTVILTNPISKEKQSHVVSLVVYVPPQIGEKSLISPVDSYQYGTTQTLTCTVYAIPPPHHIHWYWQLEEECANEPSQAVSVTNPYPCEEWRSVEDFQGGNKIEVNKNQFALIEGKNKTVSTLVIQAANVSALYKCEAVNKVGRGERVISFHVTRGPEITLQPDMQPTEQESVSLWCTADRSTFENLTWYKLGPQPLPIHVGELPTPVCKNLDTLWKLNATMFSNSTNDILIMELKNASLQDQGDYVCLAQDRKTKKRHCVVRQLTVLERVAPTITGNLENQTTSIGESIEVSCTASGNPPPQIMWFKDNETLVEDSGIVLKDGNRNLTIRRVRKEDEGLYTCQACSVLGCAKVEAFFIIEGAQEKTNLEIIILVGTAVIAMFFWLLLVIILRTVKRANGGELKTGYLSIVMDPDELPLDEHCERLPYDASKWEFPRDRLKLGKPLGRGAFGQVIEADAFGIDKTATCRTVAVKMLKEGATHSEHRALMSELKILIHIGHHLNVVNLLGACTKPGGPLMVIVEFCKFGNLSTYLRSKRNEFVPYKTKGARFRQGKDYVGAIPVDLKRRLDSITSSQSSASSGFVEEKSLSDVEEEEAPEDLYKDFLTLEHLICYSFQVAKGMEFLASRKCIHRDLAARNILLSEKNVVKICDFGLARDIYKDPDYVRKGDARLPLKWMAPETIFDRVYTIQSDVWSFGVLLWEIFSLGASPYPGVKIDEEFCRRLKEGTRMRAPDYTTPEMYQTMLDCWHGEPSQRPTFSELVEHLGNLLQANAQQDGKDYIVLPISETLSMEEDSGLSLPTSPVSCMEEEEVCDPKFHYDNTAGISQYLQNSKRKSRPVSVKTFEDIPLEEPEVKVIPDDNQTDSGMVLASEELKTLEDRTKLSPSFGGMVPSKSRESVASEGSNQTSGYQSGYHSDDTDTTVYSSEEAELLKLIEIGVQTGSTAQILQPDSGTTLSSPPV

| SMILES | inhibition at 0.5 µM [1] | inhibition at 0.5 µM [2] | inhibition at 0.5 µM [3] | inhibition at 0.5 µM [4] |
| --- | --- | --- | --- | --- |
| C=CC(=O)Nc1ccc(Sc2ccnc(Nc3cccc(C#N)c3)n2)cc1 [Compound 118, N-(4-(2-(3-cyanophenylao)pyrimidin-4-ylthio)phenyl)acrylamide] | 100% | 100% | 100% | 100% |
| CC#CC(=O)Nc1ccc(Sc2nc(Nc3ccc(N4CCOCC4)cc3)ncc2C)cc1 [Compound 125, N-(4-(5-methyl-2-(4-morpholinophenylao)pyrimidin-4-ylthio)phenyl)but-2-ynamide] | 100% | 100% | 100% | 100% |
| C=CC(=O)Nc1ccc(Sc2ccnc(Nc3cccc(C(=O)OC)c3)n2)cc1 [Compound 356, methyl 3-(4-(4-acrylamidophenylthio)pyrimidin-2-ylao)benzoate] | 100% | 100% | 100% | 100% |
| C=CC(=O)Nc1ccc(Sc2ccnc(Nc3ccc(N4CCS(=O)(=O)CC4)cc3)n2)cc1 [Compound 99, N-{4-[(2-{[4-(1,1-dioxo-1λ^6,4-thiomorpholin-4-yl)phenyl]ao}pyrimidin-4-yl)sulfanyl]phenyl}prop-2-enamide] | 100% | 100% | 100% | 100% |
| C=CC(=O)Nc1ccc(Sc2ccnc(Nc3ccccc3)n2)cc1 [Compound 350, N-(4-(2-(phenylao)pyrimidin-4-ylthio)phenyl)acrylamide] | 100% | 100% | 100% | 100% |
| C=CC(=O)Nc1ccc(Sc2ccnc(Nc3ccc(S(N)(=O)=O)cc3)n2)cc1 [Compound 352, N-(4-(2-(4-sulfamoylphenylao)pyrimidin-4-ylthio)phenyl)acrylamide] | 100% | 100% | 100% | 100% |
| C=CC(=O)Nc1ccc(Sc2ccnc(Nc3cccc(OC)c3)n2)cc1 [Compound 105, N-(4-(2-(3-methoxyphenylao)pyrimidin-4-ylthio)phenyl)acrylamide] | 100% | 100% | 100% | 100% |
| C=CC(=O)Nc1ccc(Sc2ccnc(Nc3ccc(C#N)cc3)n2)cc1 [Compound 131, N-(4-(2-(4-cyanophenylao)pyrimidin-4-ylthio)phenyl)acrylamide] | 100% | 100% | 100% | 100% |
| C=CC(=O)Nc1ccc(Sc2ccnc(Nc3ccc(N4CCOCC4)cc3)n2)c(Cl)c1C [Compound 161, N-(3-chloro-2-methyl-4-(2-(4-morpholinophenylao)pyrimidin-4-ylthio)phenyl)acrylamide] | 100% | 100% | 100% | 100% |
| C=CC(=O)Nc1ccc(Sc2ccnc(Nc3ccc(N4CCC(N5CCCC5)CC4)cc3)n2)cc1 [Compound 87, N-(4-(2-(4-(4-(pyrrolidin-1-yl)piperidin-1-yl)phenylao)pyrimidin-4-ylthio)phenyl)acrylamide] | 100% | 100% | 100% | 100% |
| C=CC(=O)Nc1ccc(Sc2ccnc(Nc3ccc(F)c(C#N)c3)n2)cc1 [Compound 354, N-(4-(2-(3-cyano-4-fluorophenylao)pyrimidin-4-ylthio)phenyl)acrylamide] | 100% | 100% | 100% | 100% |
| CC#CC(=O)Nc1ccc(Sc2ccnc(Nc3ccc(N4CCOCC4)cc3)n2)cc1 [Compound 104, N-(4-(2-(4-morpholinophenylao)pyrimidin-4-ylthio)phenyl)but-2-ynamide] | 100% | 30% | – | 73% |

Reference: patent US8846704B2, “Thiopyrimidine-based compounds and uses thereof” (YM Biosciences Austraila Pty Ltd, priority 2007, dated 2014)
